Data as given in patent US8535904B2, “Method of enhancing skin barrier function” (Pola Chemical Industries Inc., priority 2006, dated 2013).

Key:
[1] = test system: normal human epidermal keratinocytes (NHEK); assay: Calcium ion permeation through cultured normal human epidermal keratinocyte layer (Transwell, Arsenazo III quantification); assay type: cell-based; settings: 10^-1% test substance; calcium loaded concentration 5 mM; control = test substance concentration 0; FIG. 5/FIG. 6
Description: Frozen normal human epidermal keratinocytes (NHEK) (manufactured by Kurabo Industries Ltd.) were thawed and cultured in a 0.15 mM Ca-containing culture medium (Humedia-KG2; manufactured by Kurabo Industries Ltd.) at 37° C. in 50% carbon dioxide atmosphere. A Transwell (registered trademark) manufactured by Corning Incorporated (diameter 12 mm, polyethylene terephthalate, 0.4 μm pore) was placed on a Millicell (registered trademark) tissue culture plate (manufactured by Millipore), and the above-mentioned culture medium was added in amounts of 1.5 ml to the lower layer and 0.5 ml to the upper layer. […]
The recovered samples were quantified with quantification reagents {Ca-Arsenazo-III, Mg-Xylidyl blue I (both are manufactured by Fluka)}. […] The net flux (mass transfer per unit time and unit area) was calculated from the quantification results, and Ca and Mg ion permeability coefficients were calculated by the following formula.
a) 7.76 mg of Arsenazo III was dissolved in 100 μl of 1N NaOH, and the volume of the solution was adjusted to 50 ml with the apical solution for Ca prepared in Table 1 (Ca quantification solution). […]
c) In order to quantify Ca in a sample, the Ca quantification solution and the sample were each added to the plate in an amount of 50 μl/well to measure ODs (600). […]

[2] = test system: normal human epidermal keratinocytes (NHEK); assay: TER (transepithelial electrical resistance) of cultured normal human epidermal keratinocyte layer; assay type: cell-based; settings: 10^-4 v/v % in culture medium; TER measured at addition and 1, 2, 3, 4 days later; FIG. 7
Description: Frozen normal human epidermal keratinocytes (NHEK) (manufactured by Kurabo Industries Ltd.) were thawed and cultured in a 0.15 mM Ca-containing culture medium (Humedia-KG2; manufactured by Kurabo Industries Ltd.) at 37° C. in […] atmosphere. A Transwell manufactured by Corning Incorporated (diameter 12 mm, polyethylene terephthalate, 0.4 μm pore) was placed on a Millicell tissue culture plate (manufactured by Millipore), and the above-mentioned culture medium was added in amounts of 0.5 ml to the upper layer and 1.5 ml to the lower layer. Then, the normal human epidermal keratinocytes (NHEK) were inoculated at 1×10^5/cm^2 and cultured for additional 72 hours. […] Thereafter, the medium was exchanged for a culture medium containing 10^−4 v/v % α,ε-bis(γ-N-lauroylglutamyl)lysine (Pellicer L-30 (registered trademark) (hereinafter, referred to as Pellicer); manufactured by Asahi Kasei Corporation), and TERs were measured. The culture was further continued, and one, two, three, and four days later, TERs were measured.
Frozen normal human epidermal keratinocytes (NHEK) (manufactured by Kurabo Industries Ltd.) were thawed and cultured in a 0.15 mM Ca-containing culture medium (Humedia-KG2; manufactured by Kurabo Industries Ltd.) at 37° C. in 50% carbon dioxide atmosphere. […] The culture was further continued, and one, two, three, and four days later, TERs were measured.

Compound	inhibition of the transference of a calcium ion (calcium ion permeation ratio vs control) [1]	TER (resistance value) compared with the control [2]
C[N+](C)(C)C[C@H](O)CC(=O)[O-] [L-carnitine, reference compound]	had ability to inhibit the transference of a calcium ion	
CCCCCCCCCCCC(=O)N[C@@H](CCC(=O)NCCCC[C@H](NC(=O)CC[C@H](NC(=O)CCCCCCCCCCC)C(=O)O)C(=O)O)C(=O)O [Pellicer, α,ε-bis(γ-N-lauroylglutamyl)lysine]		increased resistance value compared with the control
N[C@@H](CCCCNC(=O)CC[C@H](N)C(=O)O)C(=O)O [ε,γ-glutamyl lysine]	had ability to inhibit the transference of the calcium ion	
